pKi: −log10 of the molar value.
How the values were obtained:
Adenosine receptor A1 [1] = target: T1, Adenosine receptor A1 (Rattus norvegicus, UniProt P25099); assay: Ability to inhibit binding of [3H]CHA to adenosine A1 receptor in rat brain cortical membranes.; type: cell membranes, Membrane
T1 sequence (P25099 whole entry): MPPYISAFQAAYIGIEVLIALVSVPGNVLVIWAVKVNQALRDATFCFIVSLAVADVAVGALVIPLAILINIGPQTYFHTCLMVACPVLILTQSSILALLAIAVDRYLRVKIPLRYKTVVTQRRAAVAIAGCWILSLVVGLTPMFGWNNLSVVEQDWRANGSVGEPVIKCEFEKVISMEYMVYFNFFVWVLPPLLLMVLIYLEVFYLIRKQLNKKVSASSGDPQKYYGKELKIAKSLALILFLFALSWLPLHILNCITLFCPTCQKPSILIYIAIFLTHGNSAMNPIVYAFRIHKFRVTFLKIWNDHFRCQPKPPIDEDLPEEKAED

Adenosine receptor A2a [2] = target: T2, Adenosine receptor A2a (Rattus norvegicus, UniProt P30543)
Description: Ability to inhibit binding of [3H]-CGS- 21680 to adenosine A2A receptor in rat brain striatal membranes.

Adenosine receptor A1 [3] = target: T1, Adenosine receptor A1; assay: Ability to inhibit binding of [3H]R-PIA to Adenosine A1 receptor in rat brain cortical membranes; type: cell membranes, Membrane
Adenosine receptor A2a [4] = target: T2, Adenosine receptor A2a; remark: listed apart in the source
Description: Ability to inhibit binding of [3H]NECA to Adenosine A2A receptor in rat brain striatal membranes

Adenosine receptor A2b = target: T3, Adenosine receptor A2b (Homo sapiens, UniProt P29275); assay: Binding affinity for human Adenosine A2B receptor at 10 uM; IA = Inactive
T3 sequence (P29275 whole entry): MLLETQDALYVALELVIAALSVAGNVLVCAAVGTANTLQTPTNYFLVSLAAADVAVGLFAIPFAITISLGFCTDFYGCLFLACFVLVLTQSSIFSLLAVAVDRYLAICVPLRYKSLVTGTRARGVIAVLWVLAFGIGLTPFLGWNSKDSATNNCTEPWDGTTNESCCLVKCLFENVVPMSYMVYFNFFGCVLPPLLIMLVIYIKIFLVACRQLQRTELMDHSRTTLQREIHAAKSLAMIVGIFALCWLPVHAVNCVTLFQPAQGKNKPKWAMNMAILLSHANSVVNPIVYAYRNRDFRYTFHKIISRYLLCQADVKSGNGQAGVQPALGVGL

Adenosine receptor A3 [5] = target: T4, Adenosine receptor A3 (Homo sapiens, UniProt P0DMS8); assay: Binding affinity for human Adenosine A3 receptor at 10 uM; IA = Inactive
T4 sequence (P0DMS8 whole entry): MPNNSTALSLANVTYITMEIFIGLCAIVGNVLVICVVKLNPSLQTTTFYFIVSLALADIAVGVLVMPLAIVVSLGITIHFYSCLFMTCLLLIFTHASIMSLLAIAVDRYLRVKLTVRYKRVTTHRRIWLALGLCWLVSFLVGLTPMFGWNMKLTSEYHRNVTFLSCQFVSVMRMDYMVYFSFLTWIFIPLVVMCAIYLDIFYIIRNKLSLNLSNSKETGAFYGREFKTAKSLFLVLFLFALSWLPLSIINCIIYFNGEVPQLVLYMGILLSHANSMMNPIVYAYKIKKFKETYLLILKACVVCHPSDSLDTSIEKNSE

Adenosine receptor A3 [6] = target: T5, Adenosine receptor A3 (Rattus norvegicus, UniProt P28647); assay: Inhibitory activity against rat adenosine A3 receptor; inactive up to 10 uM concentration; IA = Inactive
T5 sequence (P28647 whole entry): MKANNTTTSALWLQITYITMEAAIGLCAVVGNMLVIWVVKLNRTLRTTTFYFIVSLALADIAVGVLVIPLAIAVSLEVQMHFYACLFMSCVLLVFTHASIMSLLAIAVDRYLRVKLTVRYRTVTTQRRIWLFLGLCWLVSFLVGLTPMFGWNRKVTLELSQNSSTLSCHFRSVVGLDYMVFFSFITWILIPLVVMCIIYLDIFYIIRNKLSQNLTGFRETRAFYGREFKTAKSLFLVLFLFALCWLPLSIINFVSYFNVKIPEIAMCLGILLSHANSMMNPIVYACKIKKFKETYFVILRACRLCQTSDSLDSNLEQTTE

[7] = target: T6, Adenosine receptor A1 (Rattus norvegicus) (UniProt P25099); assay: Inhibition of [3H]CHA binding to Adenosine A1 receptor of rat brain cortical membranes; type: cell membranes; details: Membrane, concentration not given here
T6 sequence (whole entry): T1 sequence (P25099 whole entry)

T2 sequence (P30543 whole entry): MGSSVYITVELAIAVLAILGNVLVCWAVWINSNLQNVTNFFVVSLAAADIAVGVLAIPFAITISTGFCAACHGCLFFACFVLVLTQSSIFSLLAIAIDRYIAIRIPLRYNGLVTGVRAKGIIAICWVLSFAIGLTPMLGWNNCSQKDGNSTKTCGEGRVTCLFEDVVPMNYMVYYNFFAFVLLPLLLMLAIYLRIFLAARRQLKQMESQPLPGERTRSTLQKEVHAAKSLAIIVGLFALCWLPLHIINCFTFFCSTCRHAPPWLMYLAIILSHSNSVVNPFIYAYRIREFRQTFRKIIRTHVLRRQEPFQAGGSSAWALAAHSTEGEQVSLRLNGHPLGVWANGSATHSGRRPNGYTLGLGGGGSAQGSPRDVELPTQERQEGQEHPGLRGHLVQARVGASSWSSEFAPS

| SMILES | pKi (Adenosine receptor A1 [1]) | pKi (Adenosine receptor A2a [2]) | other results |
| --- | --- | --- | --- |
| C#CCn1c(-c2ccccc2)nc2c1c(=O)n(C)c(=O)n2CC(C)C | 5.55 | 5.46 |  |
| C=CCn1c(=O)c2c(nc(/C=C/c3ccccc3)n2C)n(C)c1=O | 5.04 | 7.20 |  |
| C#CCn1c(=O)c2c(nc(/C=C/c3ccco3)n2C)n(C)c1=O | 5.72 | 6.60 |  |
| CC(C)Cn1c(=O)n(C)c(=O)c2c1nc(-c1ccccc1)n2C | 5.36 | 4.85 |  |
| C#CCn1c(=O)c2c(nc(/C=C/c3ccc(OC)c(OC)c3)n2C)n(C)c1=O | 5.60 | 7.82 |  |
| C#CCn1c(=O)c2c(ncn2C)n(C)c1=O | 4.92 | 5.07 |  |
| C#CCn1c(=O)c2c(nc(/C=C/c3cccc(Cl)c3)n2C)n(Cc2ccccc2)c1=O | 5.64 | 7.17 |  |
| COc1ccc(/C=C/c2nc3c(c(=O)n(C)c(=O)n3C)n2C)cc1OC | 5.02 | 7.74 |  |
| C#CCn1c(=O)c2c(nc(/C=C/c3cccs3)n2C)n(C)c1=O | 5.39 | 6.47 |  |
| Cn1c(=O)c2c(nc(/C=C/c3cccc(Cl)c3)n2C)n(C)c1=O |  |  | Ki (Adenosine receptor A3 [6]): Not Active; inhibition [7]: 17% |
| C#CCn1c(=O)c2[nH]c(/C=C/c3cccc(Cl)c3)nc2n(C)c1=O |  |  | pKi (Adenosine receptor A1 [3]): 6.60; pKi (Adenosine receptor A2a [4]): 6.39 |
| C#CCn1c(=O)c2c(nc(-c3ccccc3)n2C)n(C)c1=O | 5.49 | 5.48 | pKi (Adenosine receptor A2a [4]): 5.19 |
| Cn1c(=O)c2c(nc(-c3ccccc3)n2C)n(C)c1=O | 4.48 | 4.72 | pKi (Adenosine receptor A2a [4]): 4.60 |
| C#CCn1c(=O)c2[nH]cnc2n(C)c1=O |  |  | pKi (Adenosine receptor A2a [4]): 5.32 |
| C#CCn1c(=O)c2c(nc(C3CCCCC3)n2C)n(C)c1=O | 5.55 | 5.35 |  |

The next lines start with results.

| pKi (Adenosine receptor A1 [1]) | pKi (Adenosine receptor A2a [2]) | SMILES | other results |
| --- | --- | --- | --- |
| 5.96 | 7.57 | C#CCn1c(=O)c2c(nc(/C=C/c3ccccc3)n2C)n(C)c1=O | pKi (Adenosine receptor A1 [3]): 5.57; pKi (Adenosine receptor A2a [4]): 6.85 |
| 5.82 | 7.46 | C#CCn1c(=O)c2c(nc(/C=C/c3ccc4c(c3)OCO4)n2C)n(C)c1=O |  |
| 5.92 | 8.09 | C#CCn1c(=O)c2c(nc(/C=C/c3cccc(Br)c3)n2C)n(C)c1=O | Ki (Adenosine receptor A2b): Not Active; Ki (Adenosine receptor A3 [5]): Not Active |
| 6.27 | 7.51 | CCCn1c(=O)c2c(nc(/C=C/c3cccc(Cl)c3)n2C)n(C)c1=O |  |
| 6.59 |  | CCCn1c(=O)c2c(nc(/C=C/c3ccc(OC)c(OC)c3)n2C)n(CCC)c1=O |  |
| 6.12 | 7.62 | C#CCn1c(=O)c2c(nc(/C=C/c3ccsc3)n2C)n(C)c1=O |  |
| 6.99 | 8.29 | C#CCn1c(=O)c2c(nc(/C=C/c3cccc(Cl)c3)n2C)n(CCC)c1=O |  |
| 6.62 | 7.82 | C#CCn1c(=O)c2c(nc(/C=C/c3cccc(Cl)c3)n2C)n(CC(C)C)c1=O |  |
| 6.08 | 6.77 | C#CCn1c(=O)c2[nH]c(/C=C/c3ccc4c(c3)OCO4)nc2n(C)c1=O |  |
| 5.89 | 6.51 | C#CCn1c(=O)[nH]c2[nH]c(/C=C/c3ccccc3)nc2c1=O | pKi (Adenosine receptor A1 [3]): 5.68; pKi (Adenosine receptor A2a [4]): 5.72 |
| 6.02 | 5.74 | C#CCn1c(=O)c2c(nc(-c3cccs3)n2C)n(C)c1=O |  |
| 5.89 | 7.89 | C#CCn1c(=O)c2c(nc(/C=C/c3cccc(Cl)c3)n2C)n(C)c1=O | pKi (Adenosine receptor A1 [3]): 5.60; pKi (Adenosine receptor A2a [4]): 7.33 |
| 6.07 | 6.06 | C#CCn1c(=O)c2[nH]cnc2n(Cc2ccccc2)c1=O |  |
| 6.70 | 7.21 | C#CCn1c(=O)c2c(nc(/C=C/c3cccc(Cl)c3)n2CC#C)n(C)c1=O |  |
| 6.74 | 6.25 | C#CCn1c(=O)[nH]c2nc(-c3cccs3)[nH]c2c1=O | pKi (Adenosine receptor A1 [3]): 6.92; pKi (Adenosine receptor A2a [4]): 5.29 |
| 7.08 | 7.34 | C#CCn1c(=O)c2[nH]c(/C=C/c3cccc(Cl)c3)nc2n(CC(C)C)c1=O |  |

From ChEMBL document CHEMBL1130278, “Synthesis and structure-activity relationships of 3,7-dimethyl-1-propargylxanthine derivatives, A2A-selective adenosine receptor antagonists” (J Med Chem, 1997)
